Values of other authors in patent publication US4758437A, “Composition for long acting nicardipine preparation and process of producing the composition” (Yamanouchi Pharmaceutical Co., Ltd., priority 1987, dated 1988).

COC(=O)C1=C(C)NC(C)=C(C(=O)OCCN(C)Cc2ccccc2)C1c1cccc([N+](=O)[O-])c1 (stereo not drawn) [nicardipine, 2,6-dimethyl-4-(3'-nitrophenyl)-1,4-dihydropyridine-3,5-dicarboxylic acid-3-methyl ester-5-β-(N-benzyl-N-methylamino)-ethyl ester]
solubility in the first fluid of Japanese Pharmacopeia IX (about pH 1.2, nicardipine or its salt): good solubility
solubility in the second fluid of Japanese Pharmacopeia IX (about pH 7.5): sparingly soluble
solubility in intestinal juice (intestinal juice): practically insoluble
